The values below come from ChEMBL document CHEMBL1134123, “Potent nonpeptide GnRH receptor antagonists derived from substituted indole-5-carboxamides and -acetamides bearing a pyridine side-chain terminus” (Bioorg Med Chem Lett, 2001).

In assay [1] the target is Gonadotropin-releasing hormone receptor (Homo sapiens) (UniProt P30968). The assay can be described thus: Inhibition of [125I]buserelin binding to human Gonadotropin-releasing hormone receptor.
Assay [2] concerns the target T1, Gonadotropin-releasing hormone receptor (Homo sapiens, UniProt P30968).
T1 sequence (P30968 whole entry): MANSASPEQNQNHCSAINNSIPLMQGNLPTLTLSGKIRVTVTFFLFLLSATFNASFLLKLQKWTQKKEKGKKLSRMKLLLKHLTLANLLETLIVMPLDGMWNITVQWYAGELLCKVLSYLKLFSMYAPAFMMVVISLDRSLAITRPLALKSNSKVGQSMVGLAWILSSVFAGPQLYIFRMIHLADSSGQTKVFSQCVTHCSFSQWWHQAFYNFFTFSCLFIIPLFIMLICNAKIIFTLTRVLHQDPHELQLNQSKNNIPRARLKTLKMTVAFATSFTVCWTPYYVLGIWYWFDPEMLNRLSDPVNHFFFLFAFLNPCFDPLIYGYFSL
Kind of assay: Inhibition of GnRH-stimulated phosphatidylinositol (PI) hydrolysis in cloned chinese hamster ovary (CHO) cells expressing human GnRH receptor. It is filed as functional, cell-based.

Assay [3] has as its target T2, Gonadotropin-releasing hormone receptor (Rattus norvegicus, UniProt P30969).
T2 sequence (P30969 whole entry): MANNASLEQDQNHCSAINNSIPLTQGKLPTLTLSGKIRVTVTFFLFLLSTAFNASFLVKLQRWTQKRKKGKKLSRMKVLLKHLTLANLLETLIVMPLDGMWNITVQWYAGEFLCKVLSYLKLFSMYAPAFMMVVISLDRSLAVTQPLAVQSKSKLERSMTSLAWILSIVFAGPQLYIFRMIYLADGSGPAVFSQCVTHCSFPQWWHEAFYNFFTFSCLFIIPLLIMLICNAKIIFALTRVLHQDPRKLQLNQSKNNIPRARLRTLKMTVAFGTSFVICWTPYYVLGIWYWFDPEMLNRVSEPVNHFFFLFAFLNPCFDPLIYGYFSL
Kind of assay: Inhibition of [125I]buserelin binding to rat Gonadotropin-releasing hormone receptor.

Assay [4] addresses T2, Gonadotropin-releasing hormone receptor. The assay can be described thus: Inhibition of GnRH-stimulated luteinizing hormone (LH) release in rat pituitary cells. Format: functional, cell-based, Pituitary gland cell.
The target of assay [5] is T1, Gonadotropin-releasing hormone receptor. Kind of assay: Inhibition of [125I]buserelin binding to human Gonadotropin-releasing hormone receptor.

In the case of `Cc1cc(C)cc(-c2[nH]c3ccc(C(C)(C)C(=O)N4C5CCC4CC5)cc3c2CCN(CCCCc2ccncc2)C(C)C)c1`, the values for the IC50 in assay [1] and in assay [2] were 3.1 nM and 200 nM, respectively.
For the compound `Cc1cc(C)cc(-c2[nH]c3ccc(C(=O)N(C)C)cc3c2CCNCCCCc2ccncc2)c1`, the IC50 (commonly the concentration needed to halve the response being measured) in assay [3] worked out at 0.8 nM; in assay [4] it was 1460 nM.
Take `CCN(C(=O)c1ccc2[nH]c(-c3cc(C)cc(C)c3)c(CCNCCCCc3cccnc3)c2c1)C(C)C`: the IC50 in assay [4] is 830 nM; in assay [2] it was 110 nM; in assay [5] it was 11 nM.
For the compound `CCN(C(=O)c1ccc2[nH]c(-c3cc(C)cc(C)c3)c(CCNCCCCc3ccncc3)c2c1)C1CCCCCCC1`, the IC50 in assay [4] was determined as 81 nM; in assay [2], 15 nM; in assay [5], 1.9 nM.
`Cc1cc(C)cc(-c2[nH]c3ccc(C4(C(=O)N5C6CCC5CC6)CCC4)cc3c2CCNCCCCc2ccncc2)c1`: the IC50 in assay [1] came to 1.2 nM; in assay [2], 170 nM.
With `CCN(CC)C(=O)c1ccc2[nH]c(-c3cc(C)cc(C)c3)c(CCN(C)CCCCc3ccncc3)c2c1`, the IC50 in assay [4] amounted to 430 nM; in assay [2], 58 nM; in assay [5], 30 nM.
In the case of `CCCCN(CCCC)C(=O)c1ccc2[nH]c(-c3cc(C)cc(C)c3)c(CCNCCCCc3ccncc3)c2c1`, the results for the IC50 in assay [3] and in assay [4] were 0.4 nM and 240 nM, respectively.
Regarding `CCN(CC)C(=O)C(C)(C)c1ccc2[nH]c(-c3cc(C)cc(C)c3)c(CCNCCCCc3cccnc3)c2c1`, the IC50 in assay [1] is 3.3 nM; in assay [4], 240 nM; in assay [2], 94 nM.
For `Cc1cc(C)cc(-c2[nH]c3ccc(C(C)(C)C(=O)N4C5CCC4CC5)cc3c2CCN(C)CCCCc2ccncc2)c1`, the values for the half-inhibitory concentration (IC50) in assay [1], in assay [4] and in assay [2] were 1.5 nM, 71 nM and 110 nM, respectively.
For `Cc1cc(C)cc(-c2[nH]c3ccc(C(=O)N4C(C)CCC4C)cc3c2CCNCCCCc2ccncc2)c1` (configuration not stated), the IC50 turned out to be 0.3 nM in assay [3] and 340 nM in assay [4].
For the compound `Cc1cc(C)cc(-c2[nH]c3ccc(C(C)(C)C(=O)N4CCCC4)cc3c2CCNCCCCc2cccnc2)c1`, the IC50 worked out at 5 nM in assay [1], 290 nM in assay [4] and 61 nM in assay [2].
As to `CCN(CCCCc1ccncc1)CCc1c(-c2cc(C)cc(C)c2)[nH]c2ccc(C(C)(C)C(=O)N3C4CCC3CC4)cc12`, the half-inhibitory concentration (IC50) in assay [1] came to 2.2 nM; in assay [4], 730 nM; in assay [2], 90 nM.
In the same order, the values of `Cc1cc(C)cc(-c2[nH]c3ccc(C(C)(C)C(=O)N(CC(C)C)CC(C)C)cc3c2CCNCCCCc2cccnc2)c1` are 1.7 nM, 400 nM and 22 nM.
For `CCN(CCO)C(=O)c1ccc2[nH]c(-c3cc(C)cc(C)c3)c(CCNCCCCc3ccncc3)c2c1`, the IC50 in assay [4] worked out at 1000 nM; in assay [2], 260 nM; in assay [5] it was 36 nM.
Turning to `Cc1cc(C)cc(-c2[nH]c3ccc(C(C)(C)C(=O)N(CC(C)C)CC(C)C)cc3c2CCNCCCCc2ccncc2)c1`, the IC50 in assay [1] was found to be 2.8 nM; in assay [4], 140 nM; in assay [2], 8.3 nM.
For the compound `CCC(CC)(C(=O)N1C2CCC1CC2)c1ccc2[nH]c(-c3cc(C)cc(C)c3)c(CCNCCCCc3ccncc3)c2c1`, the IC50 in assay [1] stood at 1.7 nM; in assay [4] it was 260 nM; in assay [2], 40 nM.
For `COCCN(CCOC)C(=O)c1ccc2[nH]c(-c3cc(C)cc(C)c3)c(CCNCCCCc3cccnc3)c2c1`, the concentration for half-maximal inhibition (IC50) amounted to 1300 nM in assay [4], 610 nM in assay [2] and 45 nM in assay [5].
`Cc1cc(C)cc(-c2[nH]c3ccc(C(C)(C)C(=O)N4CCOCC4)cc3c2CCNCCCCc2ccncc2)c1`: the IC50 in assay [1] is 11 nM; in assay [4] it was 540 nM; in assay [2] it was 59 nM.
On to `Cc1cc(C)cc(-c2[nH]c3ccc(C(C)(C)C(=O)N4C5CCC4CC5)cc3c2CCN(CCCCc2ccncc2)CC(C)C)c1`, for which the IC50 stood at 8.2 nM in assay [1] and 300 nM in assay [2].
As to `CCC(C)(C(=O)N1C2CCC1CC2)c1ccc2[nH]c(-c3cc(C)cc(C)c3)c(CCNCCCCc3ccncc3)c2c1` (configuration not stated), the IC50 in assay [1] worked out at 1 nM; in assay [4], 240 nM; in assay [2], 38 nM.
As for `Cc1cc(C)cc(-c2[nH]c3ccc(C(C)(C)C(=O)N4CCCCC4)cc3c2CCNCCCCc2ccncc2)c1`, the IC50 was determined as 1.8 nM in assay [1], 1200 nM in assay [4] and 38 nM in assay [2].
In the case of `CCN(CCO)C(=O)c1ccc2[nH]c(-c3cc(C)cc(C)c3)c(CCNCCCCc3cccnc3)c2c1`, the 50% inhibitory concentration (IC50) in assay [3] came to 0.6 nM; in assay [4], 1200 nM.
Turning to `Cc1cc(C)cc(-c2[nH]c3ccc(C(=O)N(C)C)cc3c2CCNCCCCc2cccnc2)c1`, the values for the IC50 in assay [3] and in assay [4] were 0.7 nM and 2600 nM, respectively.
In the case of `CCN(CC)C(=O)c1ccc2[nH]c(-c3cc(C)cc(C)c3)c(CCNCCCCc3cccnc3)c2c1`, the IC50 in assay [3] was found to be 0.6 nM; in assay [4], 400 nM; in assay [2], 190 nM; in assay [5], 23 nM.
Regarding `Cc1cc(C)cc(-c2[nH]c3ccc(C(C)(C)C(=O)N4CC(C)(C)C4)cc3c2CCNCCCCc2cccnc2)c1`, the IC50 in assay [1] was 1 nM; in assay [4], 190 nM; in assay [2], 62 nM.
`Cc1cc(C)cc(-c2[nH]c3ccc(C(=O)N4CCOCC4)cc3c2CCNCCCCc2cccnc2)c1`: the results for the IC50 in assay [3] and in assay [4] were 0.4 nM and 1600 nM, respectively.
Turning to `Cc1cc(C)cc(-c2[nH]c3ccc(C(=O)NC(C)C)cc3c2CCNCCCCc2cccnc2)c1`, the values for the IC50 in assay [4], in assay [2] and in assay [5] were over 1300 nM, 1200 nM and 55 nM, respectively.
`Cc1cc(C)cc(-c2[nH]c3ccc(C(=O)N(CC(C)C)CC(C)C)cc3c2CCNCCCCc2ccncc2)c1`: the IC50 in assay [3] amounted to 0.6 nM; in assay [4], 380 nM; in assay [2] it was 80 nM; in assay [5], 7.1 nM.
`Cc1cc(C)cc(-c2[nH]c3ccc(C(C)(C)C(=O)N(C)C)cc3c2CCNCCCCc2cccnc2)c1`: the 50% inhibitory concentration (IC50) in assay [3] turned out to be 0.5 nM; in assay [4], 680 nM.
Consider `Cc1cc(C)cc(-c2[nH]c3ccc(C(C)(C)C(N)=O)cc3c2CCNCCCCc2cccnc2)c1`, for which the IC50 in assay [2] came out at 350 nM; in assay [5], 32 nM.
On to `Cc1cc(C)cc(-c2[nH]c3ccc(C(C)(C)C(=O)N(C)C)cc3c2CCNCCCCc2ccncc2)c1`, for which the results for the IC50 in assay [3] and in assay [4] were 0.3 nM and 930 nM, respectively.
In the same order, the values of `CCCCN(CCCC)C(=O)c1ccc2[nH]c(-c3cc(C)cc(C)c3)c(CCNCCCCc3cccnc3)c2c1` are 0.4 nM and 1000 nM.
With `CCN(CC)C(=O)C(C)(C)c1ccc2[nH]c(-c3cc(C)cc(C)c3)c(CCNCCCCc3ccncc3)c2c1`, the IC50 worked out at 3.2 nM in assay [1], 210 nM in assay [4] and 58 nM in assay [2].
In the same order, the values of `Cc1cc(C)cc(-c2[nH]c3ccc(C(C)(C)C(=O)N4C5CCC4CC5)cc3c2CCNCCCCc2ccncc2)c1` are 1.4 nM, 71 nM and 18 nM.
In the same order, the values of `Cc1cc(C)cc(-c2[nH]c3ccc(C(C)(C)C(=O)N4C5CCC4CC5)cc3c2CCNCCCCc2cccnc2)c1` are 1.4 nM, 73 nM and 14 nM.
Regarding `Cc1cc(C)cc(-c2[nH]c3ccc(C(=O)N(CC(F)(F)F)CC(F)(F)F)cc3c2CCNCCCCc2ccncc2)c1`, the concentration for half-maximal inhibition (IC50) in assay [3] was 0.6 nM; in assay [4], 3600 nM; in assay [2], 91 nM; in assay [5] it was 36 nM.
On to `CCN(C(=O)C(C)(C)c1ccc2[nH]c(-c3cc(C)cc(C)c3)c(CCNCCCCc3ccncc3)c2c1)C1CCCCC1`, for which the IC50 in assay [1] worked out at 2.3 nM; in assay [4], 960 nM; in assay [2], 54 nM.
Consider `Cc1cc(C)cc(-c2[nH]c3ccc(C(=O)N(C(C)C)C(C)C)cc3c2CCNCCCCc2ccncc2)c1`, for which the IC50 in assay [3] is 0.3 nM; in assay [4] it was 400 nM.
In the same order, the values of `Cc1cc(C)cc(-c2[nH]c3ccc(C(=O)N4CCCC4)cc3c2CCNCCCCc2ccncc2)c1` are 0.5 nM and over 1300 nM.
For `Cc1cc(C)cc(-c2[nH]c3ccc(C(=O)N4C(C)CCC4C)cc3c2CCNCCCCc2cccnc2)c1` (configuration not stated), the IC50 in assay [4] was 360 nM; in assay [2], 62 nM; in assay [5], 3.6 nM.
In the case of `Cc1cc(C)cc(-c2[nH]c3ccc(C(=O)N4CCOCC4)cc3c2CCNCCCCc2ccncc2)c1`, the IC50 in assay [3] came out at 0.3 nM; in assay [4], 1400 nM.
In the same order, the values of `Cc1cc(C)cc(-c2[nH]c3ccc(C(=O)N4CCCC4)cc3c2CCNCCCCc2cccnc2)c1` are 0.6 nM and 5100 nM.
Turning to `Cc1cc(C)cc(-c2[nH]c3ccc(C(=O)N4C5CCC4CC5)cc3c2CCNCCCCc2ccncc2)c1`, the IC50 in assay [2] stood at 260 nM; in assay [5], 32 nM.
For `Cc1cc(C)cc(-c2[nH]c3ccc(C(C)(C)C(=O)N4C(C)CCC4C)cc3c2CCNCCCCc2ccncc2)c1` (configuration not stated), the half-inhibitory concentration (IC50) is 2.8 nM in assay [1], 160 nM in assay [4] and 15 nM in assay [2].
